Legend:
[1] = test system: PC9 tumor; assay: PC9 tumor growth in grafted mice following Tagrisso resistance development; assay type: in vivo; settings: for tumor volume relative to its volume prior to the treatment (100%): PC9-grafted mice after 4 weeks Tagrisso, Tagrisso 2x dosage (Group 1), combination (Group 3)
Experimental: (§1) HCC827 or AZD9291-resistant HCC827 cancer or PC9 NSCLC cells (5×10^6) were subcutaneously injected into NOD/SCID mice (2 months old, n=6-10 for each group). After tumor size reaches approximately 100 mm^3, the mice were administered AZD9291 individually or in combination with triptolide using ALZET osmotic pump, which was implanted under the skin of the mice for a specific time period. The tumor volume was monitored twice a week for 4-8 weeks. All protocols involving animals were approved by the Research Animal Care Committee of City of Hope, in compliance with the Public Health Service Policy of the United States.

[2] = test system: EGFR-TKI resistant HCC827 lung cancer cells; assay: Tumor growth of Tagrisso-resistant HCC827 cells grafted in mice; assay type: in vivo
Experimental: as §1

[3] = test system: HCC827 cells grafted into mice; assay: Tumor growth in HCC827-grafted mice; assay type: in vivo
From the text: To model human EGFR mutated NSCLC, HCC827 cells were grafted into mice.
HCC827 or AZD9291-resistant HCC827 cancer or PC9 NSCLC cells (5×10^6) were subcutaneously injected into NOD/SCID mice (2 months old, n=6-10 for each group). […] The tumor volume was monitored twice a week for 4-8 weeks. All protocols involving animals were approved by the Research Animal Care Committee of City of Hope, in compliance with the Public Health Service Policy of the United States.

[4] = test system: HCC827 cells; assay: Drug resistance assay (time to develop resistance, cell viability by cell counting); assay type: cell-based, human
[5] = test system: HSP72; assay: HSP72 cellular expression; assay type: cell-based
From the text: Triptolide by itself is a potent anti-tumor agent and functions by activating tumor suppressor protein p53 and blocking tumor promotor NF-κB.

[6] = test system: HCC827-grafted mice; assay: Survival rates of HCC827-grafted mice; assay type: in vivo; set-up: dose or concentration left out as unconfirmed; settings: Tagrisso with or without co-administered Velcade (FIG. 3)
[7] = test system: PC9 tumors; assay: Tumor growth in PC9-grafted mice (Velcade study); assay type: in vivo; settings: same treatment setting as HCC827 study
Experimental: (§2) A separate experiment was completed using PC9-grafted mice in the same treatment setting as previously described.
as §1

[8] = test system: HSP72; assay: HSP72 protein level in Tagrisso-treated HCC827 cells; assay type: cell-based, human
From the text: The inventors sought to maintain high levels of HSP72 while sustaining cancer treatment with TKIs.

[9] = Adverse effect observed in treated PC9-grafted mice; assay type: in vivo; settings: Velcade treatment
From the text: as §2

[10] = HCC827-grafted mice, compared to untreated control (FIG. 2), Tagrisso at dose corresponding to recommended human dose, low dose of Velcade

C=CC(=O)Nc1cc(Nc2nccc(-c3cn(C)c4ccccc34)n2)c(OC)cc1N(C)CCN(C)C [Tagrisso, Osimertinib]
tumor volume relative to its volume prior to the treatment (100%) ([1]; Triptolide (Group 2)): 190% | treatment time at which Tagrisso began to lose its inhibitory effect on the PC9 tumor ([1]; PC9-grafted mice, initial Tagrisso dosage): 4 weeks | tumor growth ([2]; Tagrisso-resistant HCC827 grafted mice (FIG. 5A, 5B)): does not reduce tumor growth | tumor growth [3, 10]: reduced tumor size and blocked tumor growth | tumor growth ([3]; non-resistant HCC827 cells (FIG. 5A)): tumor growth is inhibited

C#Cc1cccc(Nc2ncnc3cc(OCCOC)c(OCCOC)cc23)c1 [Tarceva, Erlotinib]
time for HCC827 cells to develop resistance to Tarceva ([4]; Tarceva alone): about 30 days

CC(C)[C@]12O[C@H]1[C@@H]1O[C@]13[C@]1(O[C@H]1C[C@H]1C4=C(CC[C@@]13C)C(=O)OC4)[C@@H]2O [Triptolide]
time HCC827 cells maintained sensitivity to Tagrisso ([4]; Tagrisso in the presence of Triptolide, 70 day duration of the study): > 70 days | time HCC827 cells maintained sensitivity to Tarceva (resistance not observed) ([4]; Tarceva when also treated with Triptolide, 70 day duration of the study): > 70 days | HSP72 cellular expression [5]: may activate HSP72 cellular expression | tumor volume relative to its volume prior to the treatment (100%) ([1]; Triptolide (Group 2)): 60% | duration of inhibitory effect on PC9 tumor growth ([1]; after 4 weeks Tagrisso pre-treatment, Tagrisso at 2x dosage (Group 1), Triptolide (Group 2)): at least 4 weeks | sensitization of Tagrisso-resistant HCC827 to the EGFR-TKI ([2]; Tagrisso in the absence or presence of Triptolide (FIG. 5B)): sensitizes Tagrisso-resistant HCC827 cells to the EGFR-TKI

CC(C)C[C@H](NC(=O)[C@H](Cc1ccccc1)NC(=O)c1cnccn1)B(O)O [Velcade, Bortezomib]
time HCC827 cells remained sensitive to Tagrisso ([4]; Tagrisso in the presence of Velcade, same concentration): > 60 days | survival of the mice [6]: did not improve survival of the mice | PC9 tumor growth [7]: little inhibitory effect on PC9 tumor growth | HSP72 protein levels [8]: effectively maintains high levels of HSP72 protein | adverse effect [9]: skin inflammation after one month | tumor growth [3, 10]: moderately inhibited tumor growth
